# Results published in PubChem BioAssay AID1845205 (Molecular Pharmacology Branch, DTP, NCI, 2023).
# Tested on: MPNST multicellular tumor spheroids, viability % test/control
# Assay: Anticancer human tumor MPNST cell line growth inhibition;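 note: spheroids exposed to agents for seven days after three days of growth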;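 for viability, T/C: luminescence signal used as surrogate for viable cell amount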
# Details: for IC50: curve of first compound; for viability, T/C: stronger effect = lower value
# Procedure, shortened: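 Complex spheroids of malignant cells with endothelial cells and mesenchymal stem cells; agents alone or combined, from near clinical Cmax (or 10 microM if unknown) down in half-log steps, 0.25% DMSO final.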
# [1] = second compound 1 µM, first compound 0.0316 µM
# [2] = second compound 1 µM, first compound 0.1 µM
# [3] = second compound 1 µM, first compound 0.316 µM
# [4] = second compound 1 µM, first compound 1 µM
# [5] = second compound 1 µM, first compound 3.16 µM
# [6] = second compound 1 µM, first compound 10 µM
# [7] = second compound 3.16 µM, first compound 0.0316 µM
# [8] = second compound 3.16 µM, first compound 0.1 µM
# [9] = second compound 3.16 µM, first compound 0.316 µM
# [10] = second compound 3.16 µM, first compound 1 µM
# [11] = second compound 3.16 µM, first compound 3.16 µM
# [12] = second compound 3.16 µM, first compound 10 µM
# [13] = second compound 10 µM, first compound 0.0316 µM
# [14] = second compound 10 µM, first compound 0.1 µM
# [15] = second compound 10 µM, first compound 0.316 µM
# [16] = second compound 10 µM, first compound 1 µM
# [17] = second compound 10 µM, first compound 3.16 µM
# [18] = second compound 10 µM, first compound 10 µM
# [19] = second compound 31.6 µM, first compound 0.0316 µM
# [20] = second compound 31.6 µM, first compound 0.1 µM
# [21] = second compound 31.6 µM, first compound 0.316 µM
# [22] = second compound 31.6 µM, first compound 1 µM
# [23] = second compound 31.6 µM, first compound 3.16 µM
# [24] = second compound 31.6 µM, first compound 10 µM
# [25] = second compound 100 µM, first compound 0.0316 µM
# [26] = second compound 100 µM, first compound 0.1 µM
# [27] = second compound 100 µM, first compound 0.316 µM
# [28] = second compound 100 µM, first compound 1 µM
# [29] = second compound 100 µM, first compound 3.16 µM
# [30] = second compound 100 µM, first compound 10 µM
smiles,measurement,setting,value
CC1COCCN1c1cc(-c2ccnn2C)c2ccnc(-c3ccn[nH]3)c2n1 (stereo not given) + Cn1nnc2c(C(N)=O)ncn2c1=O,IC50,second compound 1 µM,0.198 µM
same,IC50,second compound 3.16 µM,0.238 µM
same,IC50,second compound 10 µM,0.142 µM
same,IC50,second compound 31.6 µM,0.386 µM
same,IC50,second compound 100 µM,0.182 µM
same,"viability, T/C",[1],62%
same,"viability, T/C",[2],55.8%
same,"viability, T/C",[3],45.8%
same,"viability, T/C",[4],39.7%
same,"viability, T/C",[5],34.1%
same,"viability, T/C",[6],35.3%
same,"viability, T/C",[7],62.2%
same,"viability, T/C",[8],56.2%
same,"viability, T/C",[9],47.9%
same,"viability, T/C",[10],39.5%
same,"viability, T/C",[11],31%
same,"viability, T/C",[12],31.9%
same,"viability, T/C",[13],64.2%
same,"viability, T/C",[14],52.2%
same,"viability, T/C",[15],45.2%
same,"viability, T/C",[16],38.2%
same,"viability, T/C",[17],35.9%
same,"viability, T/C",[18],34.4%
same,"viability, T/C",[19],61.8%
same,"viability, T/C",[20],57.1%
same,"viability, T/C",[21],52.5%
same,"viability, T/C",[22],41.2%
same,"viability, T/C",[23],32.2%
same,"viability, T/C",[24],31.5%
same,"viability, T/C",[25],63.6%
same,"viability, T/C",[26],54.4%
same,"viability, T/C",[27],46.1%
same,"viability, T/C",[28],37.1%
same,"viability, T/C",[29],30.2%
same,"viability, T/C",[30],31.8%
COc1cc(C)[nH]c(=O)c1CN1CCc2c(Cl)cc(C(OC)C3COC3)c(Cl)c2C1=O (stereo not given) + Cn1nnc2c(C(N)=O)ncn2c1=O,IC50,second compound 1 µM,> 10 µM
same,IC50,second compound 3.16 µM,> 10 µM
same,IC50,second compound 10 µM,> 10 µM
same,IC50,second compound 31.6 µM,> 10 µM
same,IC50,second compound 100 µM,> 10 µM
same,"viability, T/C",[1],89.9%
same,"viability, T/C",[2],80.4%
same,"viability, T/C",[3],78.7%
same,"viability, T/C",[4],88.5%
same,"viability, T/C",[5],94.2%
same,"viability, T/C",[6],107%
same,"viability, T/C",[7],87.7%
same,"viability, T/C",[8],84.4%
same,"viability, T/C",[9],122%
same,"viability, T/C",[10],97.4%
same,"viability, T/C",[11],150%
same,"viability, T/C",[12],95.9%
same,"viability, T/C",[13],81.5%
same,"viability, T/C",[14],106%
same,"viability, T/C",[15],101%
same,"viability, T/C",[16],97.8%
same,"viability, T/C",[17],99.9%
same,"viability, T/C",[18],92.8%
same,"viability, T/C",[19],79.1%
same,"viability, T/C",[20],74%
same,"viability, T/C",[21],92.5%
same,"viability, T/C",[22],81.7%
same,"viability, T/C",[23],103%
same,"viability, T/C",[24],82.7%
same,"viability, T/C",[25],84%
same,"viability, T/C",[26],82.7%
same,"viability, T/C",[27],70.7%
same,"viability, T/C",[28],80.6%
same,"viability, T/C",[29],80.7%
same,"viability, T/C",[30],86.5%
Cc1cc(C)c(CNC(=O)c2cc(-c3ccc(CN4CCOCC4)cc3)cc3c2cnn3C2CCCC2)c(=O)[nH]1 + Cn1nnc2c(C(N)=O)ncn2c1=O,IC50,second compound 1 µM,> 10 µM
same,IC50,second compound 3.16 µM,> 10 µM
same,IC50,second compound 10 µM,> 10 µM
same,IC50,second compound 31.6 µM,> 10 µM
same,IC50,second compound 100 µM,> 10 µM
same,"viability, T/C",[1],95.9%
same,"viability, T/C",[2],82.8%
same,"viability, T/C",[3],101%
same,"viability, T/C",[4],92.7%
same,"viability, T/C",[5],115%
same,"viability, T/C",[6],98.6%
same,"viability, T/C",[7],141%
same,"viability, T/C",[8],96.7%
same,"viability, T/C",[9],116%
same,"viability, T/C",[10],109%
same,"viability, T/C",[11],103%
same,"viability, T/C",[12],104%
same,"viability, T/C",[13],75.3%
same,"viability, T/C",[14],90.9%
same,"viability, T/C",[15],107%
same,"viability, T/C",[16],91%
same,"viability, T/C",[17],109%
same,"viability, T/C",[18],103%
same,"viability, T/C",[19],103%
same,"viability, T/C",[20],85.8%
same,"viability, T/C",[21],111%
same,"viability, T/C",[22],107%
same,"viability, T/C",[23],103%
same,"viability, T/C",[24],99.5%
same,"viability, T/C",[25],99.1%
same,"viability, T/C",[26],97.5%
same,"viability, T/C",[27],96.9%
same,"viability, T/C",[28],109%
same,"viability, T/C",[29],97.9%
same,"viability, T/C",[30],88.4%
[2H]c1nc(C)nc([2H])c1-c1cc(NC[C@@H](C)c2cccc3c(C(=O)NC)ccnc23)ncn1 + Cn1nnc2c(C(N)=O)ncn2c1=O,IC50,second compound 1 µM,> 10 µM
same,IC50,second compound 3.16 µM,> 10 µM
same,IC50,second compound 10 µM,> 10 µM
same,IC50,second compound 31.6 µM,> 10 µM
same,IC50,second compound 100 µM,> 10 µM
same,"viability, T/C",[1],86.5%
same,"viability, T/C",[2],86.8%
same,"viability, T/C",[3],93.2%
same,"viability, T/C",[4],101%
same,"viability, T/C",[5],97.3%
same,"viability, T/C",[6],104%
same,"viability, T/C",[7],114%
same,"viability, T/C",[8],100%
same,"viability, T/C",[9],76.3%
same,"viability, T/C",[10],91%
same,"viability, T/C",[11],89.8%
same,"viability, T/C",[12],104%
same,"viability, T/C",[13],81.1%
same,"viability, T/C",[14],94.9%
same,"viability, T/C",[15],108%
same,"viability, T/C",[16],116%
same,"viability, T/C",[17],94.1%
same,"viability, T/C",[18],108%
same,"viability, T/C",[19],85%
same,"viability, T/C",[20],85.9%
same,"viability, T/C",[21],79.5%
same,"viability, T/C",[22],96.8%
same,"viability, T/C",[23],78.7%
same,"viability, T/C",[24],101%
same,"viability, T/C",[25],89.5%
same,"viability, T/C",[26],111%
same,"viability, T/C",[27],113%
same,"viability, T/C",[28],81.1%
same,"viability, T/C",[29],107%
same,"viability, T/C",[30],89.9%
